Source: patent publication US11725173B2, “Highly efficient organoid culture device and system” (CELLARTGEN INC., priority 2018, dated 2023)

How the values were obtained:
Format in all cases: cell-based
liver organoid [1] = experiment: Toxicity test of liver organoid under drug concentration gradient (syringe pump and mixing channel); conditions: cultured 48 hours under gradient formed from 50 mM APAP medium and medium containing no APAP
liver organoid [2] = experiment: GSH and ROS distribution by monochlorobimane (mBCL) and dihydroethidium (DHE) assay in liver organoid; conditions: liver organoid of the THE-F group, APAP 2 to 50 mM
CYP7A1 = CYP7A1 gene expression in liver organoid cultured alone or co-cultured with intestine organoid, bile acid in culture medium; conditions: compared with DMSO control
Procedure: (§1) Co-culture of the induced liver organoid and the adult stem cell-derived intestine organoid was performed, and the interaction between the two organoids was analyzed.

albumin gene = experiment: Albumin gene expression in liver organoid cultured alone or co-cultured with intestine organoid, bile acid in culture medium; conditions: all conditions (liver organoid alone or co-cultured with intestine organoid); compared with DMSO control
Procedure: as §1

fluorescence of DHE (reactive oxygen species formation) (liver organoid [2]; at higher concentrations) | fluorescence of mBCL (intracellular glutathione, GSH) (liver organoid [2]; at higher concentrations) | SMILES | cytotoxicity in the liver organoid (liver organoid [1]) | intracellular toxicity and damage of the liver organoid (liver organoid [2]) | expression level of CYP7A1 (CYP7A1; liver organoid co-cultured with intestine organoid) | expression level of CYP7A1 (CYP7A1; liver organoid cultured alone) | albumin gene expression (albumin gene)
higher | lower | CC(=O)Nc1ccc(O)cc1 [APAP, acetaminophen] | increased as the drug concentration increased | increased with an increasing concentration | – | – | –
– | – | C[C@H](CCC(=O)O)[C@H]1CC[C@H]2[C@@H]3[C@H](O)C[C@@H]4C[C@H](O)CC[C@]4(C)[C@H]3CC[C@]12C [CDCA, chenodeoxycholic acid] | – | – | a decrease | no difference | no difference in all conditions
